# Measured values taken from US7049302B1, “Compositions of CPG and saponin adjuvants and uses thereof” (Antigenics Inc., priority 1998, dated 2006).
# Tests used:
# Assay type in all cases: in vivo, C57BL/6 mice
# OVA = test: Serum IgG1 and IgG2a titers to OVA by EIA; details: sera day 42
# Protocol: Serum titers to OVA were determined by EIA on sera collected on day 42 from the mice immunized as described in Example 1. IgG subclass IgG1 and IgG2a titers were determined for individual mice (5 mice per group) and are plotted as a geometric mean titer.
# E.G7-OVA cells [1] = test: 51Cr release CTL assay, splenocytes of OVA-immunized mice stimulated in vitro with denatured OVA; details: 1.25 μg QS-21 alone (suboptimal dose), with 25 μg OVA, FIG. 2
# Protocol: C57BL/6 mice (5 per group, female, 8–10 weeks of age) were immunized by subcutaneous route at days 1, 15, and 29. The vaccines were 25 μg OVA antigen plus the indicated doses of adjuvant in a total volume of 0.2 ml phosphate-buffered saline. […] (Weiner, et al., Proc. Natl. Acad. Sci. 94:10833 (1997).) Splenocytes were removed at day 42 for use as effector cells in the CTL assay. They were stimulated in vitro for 6 days with mitomycin C-treated E.G7-OVA cells and then used in a standard ^51Cr release CTL assay. E.G7-OVA cells (loaded with ^51Cr) were used as target cells. The background lysis of EL4 cells (not transfected by OVA) was subtracted from the lysis of E.G7-OVA cells to obtain a percent (%) antigen-specific lysis.
# Splenocytes from mice immunized as described in FIG. 1 were used in a CTL assay. Splenocytes were stimulated in vitro with denatured OVA for six days prior to use in the CTL assay. The assay was carried out against E.G7-OVA cells as described in Example 1.
# E.G7-OVA cells [2] = test: 51Cr release CTL assay, splenocytes of OVA-immunized mice stimulated in vitro with mitomycin C-treated E.G7-OVA cells; details: 1.25 μg QS-21 alone (suboptimal dose), with 25 μg OVA s.c. days 1, 15, 29; splenocytes day 42; FIG. 1
# Protocol: C57BL/6 mice (5 per group, female, 8–10 weeks of age) were immunized by subcutaneous route at days 1, 15, and 29. The vaccines were 25 μg OVA antigen plus the indicated doses of adjuvant in a total volume of 0.2 ml phosphate-buffered saline. […] They were stimulated in vitro for 6 days with mitomycin C-treated E.G7-OVA cells and then used in a standard ^51Cr release CTL assay. E.G7-OVA cells (loaded with ^51Cr) were used as target cells. The background lysis of EL4 cells (not transfected by OVA) was subtracted from the lysis of E.G7-OVA cells to obtain a percent (%) antigen-specific lysis.
substance,measurement,setting,value
QS-21,"OVA-specific IgG1 titer, enhancement over the unadjuvanted group","OVA; 10 μg QS-21 alone, geometric mean titer, among the highest groups, FIG. 3",~10 fold
same,OVA-specific IgG2a response,OVA; any QS-21 dose used alone,not detected
same,antigen-specific lysis (CTL),E.G7-OVA cells [1],no lysis
same,antigen-specific lysis (CTL),E.G7-OVA cells [2],no lysis
